These results are taken from US8383637B2, “2-amino-quinazoline derivatives useful as inhibitors of β-secretase (BACE)” (Jansssen Pharmaceutica N.V., priority 2004, dated 2013).

A value given as a limit tells only on which side of the number the result lay.

The experiment addresses T1, β-secretase(BACE) (Homo sapiens, UniProt P56817).
T1 construct: purchased Panvera
Kind of experiment: BACE FS1% Inhibition Assay. Format: biochemical. Particulars: FS1 substrate; for % Inhibition (FS) 0.3 μM / inhibition at 0.3 µM: 0.3 μM test compound; for % Inhibition (FS) 1 μM / inhibition at 1 µM: 1 μM test compound; for % Inhibition (FS) 3 μM / inhibition at 3 µM: 3 μM test compound; for inhibition at 0.3 µM: read-out: % Inhibition (FS) 0.3 μM; for inhibition at 1 µM: read-out: % Inhibition (FS) 1 μM; for inhibition at 3 µM: read-out: % Inhibition (FS) 3 μM. A digest of the protocol:
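Human BACE (4 μg/mL working solution) preincubated 20 min at room temperature with compound, then FS1 substrate (300 μg/mL working solution) added and incubated 1 h at room temperature. Percent inhibition calculated at each compound concentration against blank and vehicle controls.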

T1 sequence (P56817 46-501): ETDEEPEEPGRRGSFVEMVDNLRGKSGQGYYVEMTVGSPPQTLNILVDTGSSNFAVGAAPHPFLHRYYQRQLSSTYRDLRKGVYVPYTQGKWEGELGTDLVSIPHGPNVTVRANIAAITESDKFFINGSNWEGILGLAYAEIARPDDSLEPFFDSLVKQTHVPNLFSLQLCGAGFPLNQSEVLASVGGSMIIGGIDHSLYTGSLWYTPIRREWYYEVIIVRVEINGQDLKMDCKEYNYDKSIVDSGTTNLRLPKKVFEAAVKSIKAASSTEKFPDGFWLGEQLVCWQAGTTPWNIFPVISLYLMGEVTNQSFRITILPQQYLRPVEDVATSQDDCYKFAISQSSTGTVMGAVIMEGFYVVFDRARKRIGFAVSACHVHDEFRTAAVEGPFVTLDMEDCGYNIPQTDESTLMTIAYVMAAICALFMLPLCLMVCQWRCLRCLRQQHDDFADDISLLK

As to `CC(C)CCC(=O)NCC(Cc1ccc(O)cc1)N1Cc2cc(Oc3ccccc3)ccc2N=C1N` (stereo not shown) [Compound 615], the “% Inhibition (FS) 0.3 μM” value is recorded as less than 30%, the “% Inhibition (FS) 1 μM” value is less than 30% and the “% Inhibition (FS) 3 μM” value is on record as less than 30%.

In the case of `NC1=Nc2ccc(Oc3ccccc3)cc2CN1C(CNC(=O)C1CCCCC1)Cc1ccc(O)cc1` (stereo not shown) [Compound 616], the “% Inhibition (FS) 3 μM” value was less than 30%.

As a reminder, the inhibition is how much of the control response was suppressed. Regarding `COc1ccccc1-c1ccc2c(c1)N=C(N)N(CCC(=O)NC1C3CC4CC(C3)CC1C4)C2` (stereo not shown) [Compound 617, N-Adamantan-2-yl-3-[2-amino-7-(2-methoxy-phenyl)-4H-quinazolin-3-yl]-propionamide], the inhibition at 0.3 µM was less than 30%, the inhibition at 1 µM stood at 34% and the inhibition at 3 µM was determined as 41%.

Consider `COc1ccccc1-c1cc2c(cc1F)CN(CCC(=O)NC1C3CC4CC(C3)CC1C4)C(N)=N2` (stereo not shown) [Compound 620], for which the “% Inhibition (FS) 0.3 μM” value is less than 30%, the “% Inhibition (FS) 1 μM” value is on record as less than 30% and the “% Inhibition (FS) 3 μM” value is 37%.

`NC1=Nc2ccc(-c3ccc(F)cc3)cc2CN1CCNC(=O)C1CCCCC1` [Compound 623]: the “% Inhibition (FS) 0.3 μM” value is given as less than 30%. For the setting “1 µM”, the “% Inhibition (FS) 1 μM” value is listed as less than 30%. Moreover, the “% Inhibition (FS) 3 μM” value (3 µM) was found to be 82%.

Turning to `NC1=Nc2ccc(-c3ccc(F)cc3)cc2CN1CCNC(=O)C1CCCCC1` [Compound 624], the “% Inhibition (FS) 0.3 μM” value was less than 30%. For the same compound, the “% Inhibition (FS) 1 μM” value (1 µM) is listed as 38%. Further, where the note is “3 µM”, the “% Inhibition (FS) 3 μM” value amounted to 78%.

With `NC1=Nc2ccc(-c3ccc(Cl)cc3)cc2CN1CCNC(=O)C1CCCCC1` [Compound 626], the “% Inhibition (FS) 0.3 μM” value is less than 30%, the “% Inhibition (FS) 1 μM” value was less than 30% and the “% Inhibition (FS) 3 μM” value worked out at 56%.

For the compound `Cc1ccc(-c2ccc3c(c2)CN(CCNC(=O)C2CCCCC2)C(N)=N3)cc1` [Compound 628], the “% Inhibition (FS) 0.3 μM” value is less than 30%, the “% Inhibition (FS) 1 μM” value is on record as less than 30% and the “% Inhibition (FS) 3 μM” value turned out to be 32%.

For the compound `COc1ccc(C)cc1-c1ccc2c(c1)CN(CCNC(=O)C1CCCCC1)C(N)=N2` [Compound 630], the “% Inhibition (FS) 0.3 μM” value was less than 30%, the “% Inhibition (FS) 1 μM” value is less than 30% and the “% Inhibition (FS) 3 μM” value is reported as 48%.

As to `COc1ccc(F)cc1-c1ccc2c(c1)CN(CCNC(=O)C1CCCCC1)C(N)=N2` [Compound 631], the “% Inhibition (FS) 0.3 μM” value is given as less than 30%, the “% Inhibition (FS) 1 μM” value is less than 30% and the “% Inhibition (FS) 3 μM” value turned out to be 48%.

Take `CN(C(=O)CCC(C1CCCCC1)N1Cc2cc(Oc3ccccc3)ccc2N=C1N)C1CCOCC1` (stereo not shown) [Compound 633]: the “% Inhibition (FS) 0.3 μM” value is listed as less than 30%, the “% Inhibition (FS) 1 μM” value turned out to be 30% and the “% Inhibition (FS) 3 μM” value is 70%.

As to `NC1=Nc2ccc(Oc3ccccc3)cc2CN1C[C@H](NC(=O)C1CCCCC1)C1CCCCC1` [Compound 636, (R)-enantiomer of cyclohexanecarboxylic acid [2-(2-amino-6-phenoxy-4H-quinazolin-3-yl)-1-cyclohexyl-ethyl]-amide], the inhibition at 0.3 µM was less than 30%, the inhibition at 1 µM is less than 30% and the inhibition at 3 µM is 30%.

On to `NC1=Nc2ccc(Oc3ccccc3)cc2CN1CC(NC(=O)C1CCCCC1)C1CCCCC1` (stereo not shown) [Compound 637], for which the “% Inhibition (FS) 0.3 μM” value is less than 30%, the “% Inhibition (FS) 1 μM” value is recorded as less than 30% and the “% Inhibition (FS) 3 μM” value is listed as 73%.

For the compound `CN(C(=O)CCC(C1CCCCC1)N1Cc2cc(Oc3ccccc3)ccc2N=C1N)C1CCC(O)CC1` (stereo not shown) [Compound 639], the “% Inhibition (FS) 0.3 μM” value is listed as less than 30%, the “% Inhibition (FS) 1 μM” value was less than 30% and the “% Inhibition (FS) 3 μM” value came out at 48%.

For the compound `NC1=Nc2ccc(Oc3ccccc3)cc2CN1Cc1ocnc1C(=O)NC1CCCCC1` [Compound 640], the “% Inhibition (FS) 0.3 μM” value was less than 30%, the “% Inhibition (FS) 1 μM” value was less than 30% and the “% Inhibition (FS) 3 μM” value is on record as less than 30%.

For `CN(C(=O)c1ncoc1CN1Cc2cc(Oc3ccccc3)ccc2N=C1N)C1CCCCC1` [Compound 641], the “% Inhibition (FS) 0.3 μM” value is recorded as less than 30%, the “% Inhibition (FS) 1 μM” value is recorded as less than 30% and the “% Inhibition (FS) 3 μM” value came to 48%.

For `NC1=Nc2ccc(-c3ccccc3F)cc2CN1CCNC(=O)C1CCC1` [Compound 642], the “% Inhibition (FS) 0.3 μM” value worked out at 37%, the “% Inhibition (FS) 1 μM” value was determined as 63% and the “% Inhibition (FS) 3 μM” value amounted to 96%.

With `NC1=Nc2ccc(-c3ccccc3F)cc2CN1CCNC(=O)C1CCCC1` [Compound 643], the “% Inhibition (FS) 0.3 μM” value is reported as 74%, the “% Inhibition (FS) 1 μM” value stood at 92% and the “% Inhibition (FS) 3 μM” value was found to be 110%.

Turning to `NC1=Nc2ccc(-c3ccccc3F)cc2CN1CCNC(=O)C12CC3CC(CC(C3)C1)C2` [Compound 644], the “% Inhibition (FS) 0.3 μM” value worked out at 46%, the “% Inhibition (FS) 1 μM” value is on record as 72% and the “% Inhibition (FS) 3 μM” value came to 104%.

`CCCC(=O)NCCN1Cc2cc(-c3ccccc3F)ccc2N=C1N` [Compound 645]: the “% Inhibition (FS) 0.3 μM” value is listed as 67%, the “% Inhibition (FS) 1 μM” value is 57% and the “% Inhibition (FS) 3 μM” value amounted to 91%.

Consider `CC(C)(C)C(=O)NCCN1Cc2cc(-c3ccccc3F)ccc2N=C1N` [Compound 646], for which the “% Inhibition (FS) 0.3 μM” value turned out to be 52%, the “% Inhibition (FS) 1 μM” value worked out at 72% and the “% Inhibition (FS) 3 μM” value came out at 97%.

As for `CCCCC(CC)C(=O)NCCN1Cc2cc(-c3ccccc3F)ccc2N=C1N` (stereo not shown) [Compound 648], the “% Inhibition (FS) 0.3 μM” value turned out to be 39%, the “% Inhibition (FS) 1 μM” value came to 74% and the “% Inhibition (FS) 3 μM” value is reported as 104%.

`NC1=Nc2ccc(-c3ccccc3Cl)cc2CN1CCNC(=O)C1CCC1` [Compound 649]: the “% Inhibition (FS) 0.3 μM” value is on record as 34%, the “% Inhibition (FS) 1 μM” value amounted to 65% and the “% Inhibition (FS) 3 μM” value is on record as 95%.

With `NC1=Nc2ccc(-c3ccccc3Cl)cc2CN1CCNC(=O)C1CCCC1` [Compound 650], the “% Inhibition (FS) 0.3 μM” value came to 72%, the “% Inhibition (FS) 1 μM” value was determined as 94% and the “% Inhibition (FS) 3 μM” value is 112%.

With `NC1=Nc2ccc(-c3ccccc3Cl)cc2CN1CCNC(=O)C12CC3CC(CC(C3)C1)C2` [Compound 651], the “% Inhibition (FS) 0.3 μM” value is on record as less than 30%, the “% Inhibition (FS) 1 μM” value stood at 51% and the “% Inhibition (FS) 3 μM” value amounted to 96%.

In the case of `CCCC(=O)NCCN1Cc2cc(-c3ccccc3Cl)ccc2N=C1N` [Compound 652], the “% Inhibition (FS) 0.3 μM” value is on record as 31%, the “% Inhibition (FS) 1 μM” value is 63% and the “% Inhibition (FS) 3 μM” value was found to be 91%.

Consider `CC(C)(C)C(=O)NCCN1Cc2cc(-c3ccccc3Cl)ccc2N=C1N` [Compound 653], for which the “% Inhibition (FS) 0.3 μM” value is 46%, the “% Inhibition (FS) 1 μM” value is given as 82% and the “% Inhibition (FS) 3 μM” value came out at 101%.

Consider `CCCCC(CC)C(=O)NCCN1Cc2cc(-c3ccccc3Cl)ccc2N=C1N` (stereo not shown) [Compound 655], for which the “% Inhibition (FS) 0.3 μM” value turned out to be 45%, the “% Inhibition (FS) 1 μM” value stood at 79% and the “% Inhibition (FS) 3 μM” value is reported as 104%.

Consider `Cc1ccccc1-c1ccc2c(c1)CN(CCNC(=O)C1CCC1)C(N)=N2` [Compound 656], for which the “% Inhibition (FS) 0.3 μM” value amounted to 56%, the “% Inhibition (FS) 1 μM” value was determined as 87% and the “% Inhibition (FS) 3 μM” value amounted to 104%.
